Source: PubChem BioAssay (NCI)
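Step 1: Grow cells in 96-well plates. Step 2: Expose to compound for 48 hours at 5 concentrations. Step 3: Interpolate endpoints linearly; if unreached, use highest concentration. The concentration for 50% growth inhibition is given as GI50. TGI: total growth inhibition.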

Experiments:
Experiment in all cases: growth of human tumour cells (NCI), 48 h
HCT-116 colon = tested on: HCT-116 colon
MOLT-4 leukemia = tested on: MOLT-4 leukemia
SK-MEL-28 melanoma = tested on: SK-MEL-28 melanoma
DLD-1 colon = tested on: DLD-1 colon
IGROV1 ovarian = tested on: IGROV1 ovarian
HCT-15 colon = tested on: HCT-15 colon
SR leukemia = tested on: SR leukemia
U251 CNS = tested on: U251 CNS
SK-MEL-5 melanoma = tested on: SK-MEL-5 melanoma
MCF7 breast = tested on: MCF7 breast
UACC-257 melanoma = tested on: UACC-257 melanoma
HOP-92 NSCLC = tested on: HOP-92 NSCLC
NCI-H226 lung = tested on: NCI-H226 lung
PC-3 prostate = tested on: PC-3 prostate
UO-31 renal = tested on: UO-31 renal
SW-620 colon = tested on: SW-620 colon
LXFL 529 NSCLC = tested on: LXFL 529 NSCLC
NCI-H522 lung = tested on: NCI-H522 lung
K-562 leukemia = tested on: K-562 leukemia
SF-295 CNS = tested on: SF-295 CNS
MALME-3M melanoma = tested on: MALME-3M melanoma
EKVX NSCLC = tested on: EKVX NSCLC
SK-OV-3 ovarian = tested on: SK-OV-3 ovarian
RPMI-8226 leukemia = tested on: RPMI-8226 leukemia
HL-60(TB) leukemia = tested on: HL-60(TB) leukemia
KM12 colon = tested on: KM12 colon
786-0 renal = tested on: 786-0 renal
NCI-H23 lung = tested on: NCI-H23 lung
RXF 393 renal = tested on: RXF 393 renal
SN12C renal = tested on: SN12C renal
SNB-78 CNS = tested on: SNB-78 CNS
CCRF-CEM leukemia = tested on: CCRF-CEM leukemia
SNB-19 CNS = tested on: SNB-19 CNS
SF-539 CNS = tested on: SF-539 CNS
T-47D breast = tested on: T-47D breast
OVCAR-5 ovarian = tested on: OVCAR-5 ovarian
LOX IMVI melanoma = tested on: LOX IMVI melanoma
HT29 colon = tested on: HT29 colon
MDA-MB-435 = tested on: MDA-MB-435
BT-549 breast = tested on: BT-549 breast
A498 renal = tested on: A498 renal
HS 578T breast = tested on: HS 578T breast
HOP-62 NSCLC = tested on: HOP-62 NSCLC
MDA-MB-231 breast = tested on: MDA-MB-231 breast
A549 NSCLC = tested on: A549 NSCLC
DU-145 prostate = tested on: DU-145 prostate
KM20L2 colon = tested on: KM20L2 colon
SNB-75 CNS = tested on: SNB-75 CNS
ACHN renal = tested on: ACHN renal
SK-MEL-2 melanoma = tested on: SK-MEL-2 melanoma
CAKI-1 renal = tested on: CAKI-1 renal
HOP-18 NSCLC = tested on: HOP-18 NSCLC
M14 melanoma = tested on: M14 melanoma
OVCAR-8 ovarian = tested on: OVCAR-8 ovarian
DMS 273 small cell lung = tested on: DMS 273 small cell lung
SF-268 CNS = tested on: SF-268 CNS
UACC-62 melanoma = tested on: UACC-62 melanoma
TK-10 renal = tested on: TK-10 renal
OVCAR-3 ovarian = tested on: OVCAR-3 ovarian
OVCAR-4 ovarian = tested on: OVCAR-4 ovarian
NCI/ADR-RES ovarian = tested on: NCI/ADR-RES ovarian
COLO 205 colon = tested on: COLO 205 colon
M19-MEL melanoma = tested on: M19-MEL melanoma
NCI-H460 lung = tested on: NCI-H460 lung
HCC-2998 colon = tested on: HCC-2998 colon
DMS 114 small cell lung = tested on: DMS 114 small cell lung
XF 498 CNS = tested on: XF 498 CNS

## CN(C)c1ccc(/C=C(/NC(=O)c2ccccc2)c2nc3ccc(Cl)cc3[nH]2)cc1
HCT-116 colon
  TGI: > 100 µM
MOLT-4 leukemia
  TGI: 71.1 µM
SK-MEL-28 melanoma
  TGI: > 100 µM
DLD-1 colon
  TGI: > 100 µM
IGROV1 ovarian
  TGI: > 100 µM
HCT-15 colon
  TGI: > 73.1 µM
SR leukemia
  TGI: > 89.4 µM
U251 CNS
  TGI: > 100 µM
SK-MEL-5 melanoma
  TGI: 39.3 µM
MCF7 breast
  GI50: 24.5 µM
  TGI: > 100 µM
UACC-257 melanoma
  TGI: > 86.5 µM
HOP-92 NSCLC
  TGI: 80.1 µM
NCI-H226 lung
  TGI: > 85.1 µM
PC-3 prostate
  GI50: 29.2 µM
  TGI: > 100 µM
UO-31 renal
  TGI: > 100 µM
SW-620 colon
  TGI: > 60.5 µM
LXFL 529 NSCLC
  TGI: 97.4 µM
NCI-H522 lung
  TGI: > 74.1 µM
K-562 leukemia
  TGI: > 73.8 µM
SF-295 CNS
  TGI: > 87.3 µM
MALME-3M melanoma
  TGI: > 82.9 µM
EKVX NSCLC
  TGI: > 100 µM
SK-OV-3 ovarian
  TGI: > 100 µM
RPMI-8226 leukemia
  TGI: > 82.2 µM
HL-60(TB) leukemia
  TGI: 66.9 µM
KM12 colon
  TGI: > 100 µM
786-0 renal
  TGI: > 100 µM
NCI-H23 lung
  TGI: > 100 µM
RXF 393 renal
  TGI: > 93.9 µM
SN12C renal
  TGI: > 100 µM
SNB-78 CNS
  TGI: > 100 µM
CCRF-CEM leukemia
  TGI: > 84 µM
SNB-19 CNS
  TGI: > 100 µM
SF-539 CNS
  TGI: > 100 µM
T-47D breast
  GI50: 17.5 µM
  TGI: > 77.1 µM
OVCAR-5 ovarian
  TGI: 97.5 µM
LOX IMVI melanoma
  TGI: > 70.6 µM
HT29 colon
  TGI: 78.5 µM
MDA-MB-435
  GI50: 29.8 µM
  TGI: > 100 µM
BT-549 breast
  GI50: 25.4 µM
  TGI: 85.8 µM
A498 renal
  TGI: > 100 µM
HS 578T breast
  GI50: 59.6 µM
  TGI: > 100 µM
HOP-62 NSCLC
  TGI: > 100 µM
MDA-MB-231 breast
  GI50: 28.4 µM
  TGI: > 95.3 µM
A549 NSCLC
  TGI: > 100 µM
DU-145 prostate
  GI50: 71.5 µM
  TGI: > 100 µM
KM20L2 colon
  TGI: 84.8 µM
SNB-75 CNS
  TGI: > 91.3 µM
ACHN renal
  TGI: > 100 µM
SK-MEL-2 melanoma
  TGI: 99.4 µM
CAKI-1 renal
  TGI: > 100 µM
HOP-18 NSCLC
  TGI: 8.45 µM
M14 melanoma
  TGI: > 100 µM
OVCAR-8 ovarian
  TGI: > 100 µM
DMS 273 small cell lung
  TGI: > 100 µM
SF-268 CNS
  TGI: > 100 µM
UACC-62 melanoma
  TGI: 97.6 µM
TK-10 renal
  TGI: > 100 µM
OVCAR-3 ovarian
  TGI: > 9.31 µM
OVCAR-4 ovarian
  TGI: > 100 µM
NCI/ADR-RES ovarian
  GI50: 30.7 µM
  TGI: > 100 µM
COLO 205 colon
  TGI: 66.7 µM
M19-MEL melanoma
  TGI: 69.6 µM
NCI-H460 lung
  TGI: > 100 µM
HCC-2998 colon
  TGI: > 75.5 µM

## CC(=O)Oc1cc(OC(C)=O)c2c(=O)c3ccccc3[nH]c2c1
HCT-116 colon
  TGI: > 100 µM
MOLT-4 leukemia
  TGI: > 100 µM
SK-MEL-28 melanoma
  TGI: > 100 µM
DLD-1 colon
  TGI: > 100 µM
IGROV1 ovarian
  TGI: 81.1 µM
HCT-15 colon
  TGI: > 100 µM
SK-MEL-5 melanoma
  TGI: 39.1 µM
DMS 114 small cell lung
  TGI: > 100 µM
UACC-257 melanoma
  TGI: 85.1 µM
NCI-H226 lung
  TGI: 88.9 µM
UO-31 renal
  TGI: 41.6 µM
LXFL 529 NSCLC
  TGI: > 100 µM
NCI-H522 lung
  TGI: 76.6 µM
SF-295 CNS
  TGI: > 100 µM
MALME-3M melanoma
  TGI: 67.9 µM
XF 498 CNS
  TGI: 51.9 µM
SK-OV-3 ovarian
  TGI: 49.5 µM
KM12 colon
  TGI: > 100 µM
NCI-H23 lung
  TGI: > 100 µM
RXF 393 renal
  TGI: > 100 µM
SN12C renal
  TGI: > 100 µM
SNB-78 CNS
  TGI: > 100 µM
SNB-19 CNS
  TGI: > 100 µM
SF-539 CNS
  TGI: 47.1 µM
LOX IMVI melanoma
  TGI: > 100 µM
HT29 colon
  TGI: > 100 µM
A549 NSCLC
  TGI: > 100 µM
SNB-75 CNS
  TGI: 92.8 µM
ACHN renal
  TGI: > 100 µM
SK-MEL-2 melanoma
  TGI: > 100 µM
HOP-18 NSCLC
  TGI: 51.2 µM
OVCAR-8 ovarian
  TGI: > 100 µM
DMS 273 small cell lung
  TGI: > 100 µM
SF-268 CNS
  TGI: > 100 µM
UACC-62 melanoma
  TGI: > 100 µM
TK-10 renal
  TGI: > 100 µM
OVCAR-3 ovarian
  TGI: 83.7 µM
OVCAR-4 ovarian
  TGI: > 100 µM
M19-MEL melanoma
  TGI: 86.9 µM
NCI-H460 lung
  TGI: > 100 µM
